The source made the active and inactive calls.

The values below come from ChEMBL document CHEMBL1201862, “PubChem BioAssay data set” (2004).

A short description of assay [1]: cells. Format: functional.
The target of assay [2] is T1, Calpain-2 catalytic subunit (Sus scrofa, UniProt P43367).
T1 sequence (P43367 whole entry): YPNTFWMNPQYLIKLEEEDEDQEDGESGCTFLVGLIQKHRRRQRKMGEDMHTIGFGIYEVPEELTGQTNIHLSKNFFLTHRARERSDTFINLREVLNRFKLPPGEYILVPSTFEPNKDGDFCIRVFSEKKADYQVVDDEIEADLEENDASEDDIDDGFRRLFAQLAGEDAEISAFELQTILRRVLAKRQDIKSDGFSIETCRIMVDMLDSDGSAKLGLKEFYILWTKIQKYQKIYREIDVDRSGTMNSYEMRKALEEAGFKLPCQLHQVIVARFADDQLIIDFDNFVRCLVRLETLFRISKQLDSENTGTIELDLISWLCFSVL
Briefly: pig calpain II inhibitor potency, dose response, biochemical, fluorogenic peptide substrate (AID 1420). It counts as functional.

Assay [3] addresses Protein Rev (Human immunodeficiency virus type 1 group M subtype B (isolate HXB2)(HIV-1), UniProt P04618). Briefly: inhibitors of Rev binding to RRE RNA, dose response, biochemical, fluorescence polarization, HIV-1 (AID 434976). Also on record: species or system Human immunodeficiency virus 1.
Assay [4] has as its target T2, Zinc finger protein mex-5 (Caenorhabditis elegans, UniProt Q9XUB2).
T2 sequence (Q9XUB2 whole entry): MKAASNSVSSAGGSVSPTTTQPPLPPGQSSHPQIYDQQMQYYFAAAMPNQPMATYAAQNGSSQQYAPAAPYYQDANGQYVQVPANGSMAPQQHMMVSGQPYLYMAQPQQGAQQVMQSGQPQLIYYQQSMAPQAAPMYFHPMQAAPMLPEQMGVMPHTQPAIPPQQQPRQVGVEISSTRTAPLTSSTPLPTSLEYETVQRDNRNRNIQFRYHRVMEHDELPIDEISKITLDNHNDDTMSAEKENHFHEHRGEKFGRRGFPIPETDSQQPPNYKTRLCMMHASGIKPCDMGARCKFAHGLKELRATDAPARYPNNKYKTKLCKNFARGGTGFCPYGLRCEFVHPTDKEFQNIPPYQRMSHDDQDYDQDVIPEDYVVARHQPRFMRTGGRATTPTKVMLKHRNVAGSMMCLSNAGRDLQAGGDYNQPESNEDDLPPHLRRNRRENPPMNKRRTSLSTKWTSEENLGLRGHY
Briefly: MEX-5/TCR-2 RNA interaction inhibitors, dose response, biochemical, C. elegans, fluorescence polarization (AID 1960).

The target in assay [5] is T3, Bcl-2-related protein A1 (Mus musculus, UniProt Q07440).
T3 sequence (Q07440 whole entry): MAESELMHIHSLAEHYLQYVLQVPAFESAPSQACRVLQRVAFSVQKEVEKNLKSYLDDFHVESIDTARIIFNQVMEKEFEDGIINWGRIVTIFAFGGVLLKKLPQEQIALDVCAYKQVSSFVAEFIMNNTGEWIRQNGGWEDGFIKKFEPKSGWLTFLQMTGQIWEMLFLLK
Nature of the assay: Bfl-1 inhibitors blocking BH3 peptide binding, confirmation, biochemical, TR-FRET, mouse Bfl-1 (AID 621).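 Further: TR-FRET binding of GST-Bfl-1 to FITC-labelled Bid peptide via terbium antibody.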

The target in assay [6] is 14-3-3 protein gamma (Homo sapiens, UniProt P61981). Nature of the assay: modulators of 14-3-3 gamma client binding – dose response (AID 711). It counts as functional.
Assay [7] concerns Streptococcus. Briefly: Group A Streptococcus viability loss, dose response, counter-screen for streptokinase expression inhibitor project, luminescence, BacTiterGlo (AID 1915).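 Further: potency for reduction of bacterial viability or growth.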 Format: functional, organism-based.
Assay [8] in a line: off-target signal loss in HeLa-CEM21 co-culture – HeLa F-luc CTL cells, cherry-picked, counter-screen for HIV-1 Env fusion inhibitor project, dose response (AID 652040).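 Further: potency for signal decrease marking cytotoxic or nonspecific inhibition.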 Format: functional, cell-based.
Assay [9] concerns the target Ribosomal protein S6 kinase alpha-3 (Homo sapiens, UniProt P51812). Format: functional.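 Further: measured within a kinome-wide profiling panel.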
Assay [10] concerns the target Proto-oncogene tyrosine-protein kinase receptor Ret (Homo sapiens, UniProt P07949). Format: functional.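 Further: measured within a kinome-wide profiling panel, RET as the panel member.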
The target in assay [11] is Tyrosine-protein kinase Lck (Homo sapiens, UniProt P06239). Format: functional.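 Further: lck was assayed as one member of a kinase panel.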
Assay [12] addresses Serine/threonine-protein kinase Chk2 (Homo sapiens, UniProt O96017). Format: functional.
For assay [13], the target named is Tyrosine-protein kinase BTK (Homo sapiens, UniProt Q06187). It counts as functional.
In assay [14] the target is Protein kinase C theta type (Homo sapiens, UniProt Q04759). Nature of the assay: Navigating the Kinome. Panel member name: PRKCQ. It counts as functional.
The target of assay [15] is Kappa-type opioid receptor (Homo sapiens, UniProt P41145). It counts as functional.
Assay [16] has as its target T4, Mannose-6-phosphate isomerase (Homo sapiens, UniProt P34949).
T4 sequence (P34949 whole entry): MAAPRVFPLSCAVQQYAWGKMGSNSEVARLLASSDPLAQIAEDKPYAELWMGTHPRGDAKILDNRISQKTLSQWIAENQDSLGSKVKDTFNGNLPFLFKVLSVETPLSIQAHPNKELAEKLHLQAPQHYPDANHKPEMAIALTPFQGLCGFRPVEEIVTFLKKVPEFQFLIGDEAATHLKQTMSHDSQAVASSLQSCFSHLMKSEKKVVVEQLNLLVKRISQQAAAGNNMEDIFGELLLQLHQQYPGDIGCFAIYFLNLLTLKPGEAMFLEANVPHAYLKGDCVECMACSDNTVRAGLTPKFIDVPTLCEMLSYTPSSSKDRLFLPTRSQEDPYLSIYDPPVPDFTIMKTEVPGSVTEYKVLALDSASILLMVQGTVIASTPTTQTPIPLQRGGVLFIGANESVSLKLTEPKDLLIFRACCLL
Nature of the assay: human PMI inhibitors, high substrate, primary screen, biochemical, fluorescence intensity, high mannose 6-phosphate (AID 1220).

In assay [17] the target is Serine/threonine-protein kinase TBK1 (Homo sapiens, UniProt Q9UHD2). Nature of the assay: Navigating the Kinome. Panel member name: TBK1. Format: functional.
Assay [18] deals with Focal adhesion kinase 1 (Homo sapiens, UniProt Q05397). It counts as functional.
Chain of Focal adhesion kinase 1 (Q05397 whole entry): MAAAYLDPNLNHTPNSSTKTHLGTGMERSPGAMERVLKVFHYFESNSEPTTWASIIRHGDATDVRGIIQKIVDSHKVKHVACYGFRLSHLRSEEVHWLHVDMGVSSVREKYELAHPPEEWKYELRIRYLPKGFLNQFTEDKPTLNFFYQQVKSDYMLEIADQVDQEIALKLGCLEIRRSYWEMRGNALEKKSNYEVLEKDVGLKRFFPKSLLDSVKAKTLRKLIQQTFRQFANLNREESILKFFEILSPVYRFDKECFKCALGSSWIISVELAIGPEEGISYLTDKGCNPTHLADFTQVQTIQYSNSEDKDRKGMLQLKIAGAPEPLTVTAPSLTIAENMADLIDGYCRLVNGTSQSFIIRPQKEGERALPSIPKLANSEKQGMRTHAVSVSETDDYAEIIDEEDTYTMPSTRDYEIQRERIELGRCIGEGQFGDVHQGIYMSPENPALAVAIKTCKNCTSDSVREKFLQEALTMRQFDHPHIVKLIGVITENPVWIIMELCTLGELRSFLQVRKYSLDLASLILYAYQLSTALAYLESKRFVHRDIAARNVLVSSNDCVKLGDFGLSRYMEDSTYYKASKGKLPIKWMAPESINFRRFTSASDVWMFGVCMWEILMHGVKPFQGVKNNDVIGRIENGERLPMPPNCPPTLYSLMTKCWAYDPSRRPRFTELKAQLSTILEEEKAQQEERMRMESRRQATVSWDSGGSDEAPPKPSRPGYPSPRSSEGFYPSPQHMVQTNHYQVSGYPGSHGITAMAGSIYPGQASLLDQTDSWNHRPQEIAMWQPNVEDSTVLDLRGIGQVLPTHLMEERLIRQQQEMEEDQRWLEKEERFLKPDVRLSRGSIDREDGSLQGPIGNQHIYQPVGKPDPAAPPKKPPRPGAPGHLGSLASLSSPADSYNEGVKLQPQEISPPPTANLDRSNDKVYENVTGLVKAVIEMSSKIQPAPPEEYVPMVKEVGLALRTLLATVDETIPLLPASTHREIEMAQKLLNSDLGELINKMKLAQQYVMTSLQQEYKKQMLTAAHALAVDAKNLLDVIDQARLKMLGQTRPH

Chain of 14-3-3 protein gamma (P61981 whole entry): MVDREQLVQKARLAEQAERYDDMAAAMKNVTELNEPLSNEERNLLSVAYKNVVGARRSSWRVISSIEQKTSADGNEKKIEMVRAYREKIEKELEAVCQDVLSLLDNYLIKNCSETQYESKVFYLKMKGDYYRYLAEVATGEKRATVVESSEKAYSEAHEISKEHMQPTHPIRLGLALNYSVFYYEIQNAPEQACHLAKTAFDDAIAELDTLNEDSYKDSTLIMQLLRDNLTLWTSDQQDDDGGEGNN
Chain of Protein Rev (P04618 whole entry): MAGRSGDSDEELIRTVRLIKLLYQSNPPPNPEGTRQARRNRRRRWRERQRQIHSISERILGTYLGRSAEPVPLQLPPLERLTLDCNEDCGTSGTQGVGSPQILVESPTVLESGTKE
Chain of Serine/threonine-protein kinase TBK1 (Q9UHD2 whole entry): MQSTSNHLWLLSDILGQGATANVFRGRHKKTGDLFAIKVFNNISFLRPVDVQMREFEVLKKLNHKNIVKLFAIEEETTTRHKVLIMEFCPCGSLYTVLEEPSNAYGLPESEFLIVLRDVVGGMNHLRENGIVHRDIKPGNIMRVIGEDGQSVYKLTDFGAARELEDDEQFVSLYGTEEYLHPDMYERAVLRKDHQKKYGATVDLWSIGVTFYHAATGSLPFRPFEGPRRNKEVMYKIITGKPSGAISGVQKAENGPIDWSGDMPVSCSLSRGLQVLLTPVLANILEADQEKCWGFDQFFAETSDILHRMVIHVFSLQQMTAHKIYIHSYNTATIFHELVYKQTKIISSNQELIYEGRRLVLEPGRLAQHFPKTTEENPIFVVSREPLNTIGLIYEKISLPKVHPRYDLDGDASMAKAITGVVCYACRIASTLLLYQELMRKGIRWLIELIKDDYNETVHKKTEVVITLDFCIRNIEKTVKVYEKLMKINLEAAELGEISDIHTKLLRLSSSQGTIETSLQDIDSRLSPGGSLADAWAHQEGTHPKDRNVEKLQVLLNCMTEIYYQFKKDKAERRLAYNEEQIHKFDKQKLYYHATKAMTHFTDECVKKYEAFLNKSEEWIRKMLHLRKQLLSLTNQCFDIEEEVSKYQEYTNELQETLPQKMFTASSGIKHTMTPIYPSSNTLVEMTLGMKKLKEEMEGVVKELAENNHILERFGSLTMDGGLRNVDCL
Chain of Proto-oncogene tyrosine-protein kinase receptor Ret (P07949 whole entry): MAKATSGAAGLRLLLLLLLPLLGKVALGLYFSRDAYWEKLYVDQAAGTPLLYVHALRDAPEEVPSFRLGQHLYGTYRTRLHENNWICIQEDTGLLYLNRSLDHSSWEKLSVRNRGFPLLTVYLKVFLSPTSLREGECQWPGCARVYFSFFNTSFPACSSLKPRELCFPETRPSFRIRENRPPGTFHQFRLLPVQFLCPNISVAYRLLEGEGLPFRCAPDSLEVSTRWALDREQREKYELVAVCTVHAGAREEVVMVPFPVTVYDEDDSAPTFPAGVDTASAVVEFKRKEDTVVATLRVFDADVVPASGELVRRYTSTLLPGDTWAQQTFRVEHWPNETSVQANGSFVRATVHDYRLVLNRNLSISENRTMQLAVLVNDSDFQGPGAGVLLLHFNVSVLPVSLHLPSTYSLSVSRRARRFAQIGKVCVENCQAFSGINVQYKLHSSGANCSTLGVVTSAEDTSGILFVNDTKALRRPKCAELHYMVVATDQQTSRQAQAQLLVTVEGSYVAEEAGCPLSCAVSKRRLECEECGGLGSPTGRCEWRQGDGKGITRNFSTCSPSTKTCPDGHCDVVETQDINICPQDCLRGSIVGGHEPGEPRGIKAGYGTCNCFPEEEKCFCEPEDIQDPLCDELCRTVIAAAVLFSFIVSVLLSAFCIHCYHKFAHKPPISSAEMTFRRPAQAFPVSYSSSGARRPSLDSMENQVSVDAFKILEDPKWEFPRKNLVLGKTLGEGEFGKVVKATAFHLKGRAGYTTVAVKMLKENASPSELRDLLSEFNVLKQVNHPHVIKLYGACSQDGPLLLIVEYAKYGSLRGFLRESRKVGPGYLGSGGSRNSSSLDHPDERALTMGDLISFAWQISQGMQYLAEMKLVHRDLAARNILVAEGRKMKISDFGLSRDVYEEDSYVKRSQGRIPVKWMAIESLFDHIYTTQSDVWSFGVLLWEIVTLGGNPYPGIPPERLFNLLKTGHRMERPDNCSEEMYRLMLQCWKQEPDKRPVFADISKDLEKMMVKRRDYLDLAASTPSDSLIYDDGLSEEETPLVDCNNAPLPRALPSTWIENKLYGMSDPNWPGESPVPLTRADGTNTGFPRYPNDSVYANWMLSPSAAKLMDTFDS
Chain of Serine/threonine-protein kinase Chk2 (O96017 whole entry): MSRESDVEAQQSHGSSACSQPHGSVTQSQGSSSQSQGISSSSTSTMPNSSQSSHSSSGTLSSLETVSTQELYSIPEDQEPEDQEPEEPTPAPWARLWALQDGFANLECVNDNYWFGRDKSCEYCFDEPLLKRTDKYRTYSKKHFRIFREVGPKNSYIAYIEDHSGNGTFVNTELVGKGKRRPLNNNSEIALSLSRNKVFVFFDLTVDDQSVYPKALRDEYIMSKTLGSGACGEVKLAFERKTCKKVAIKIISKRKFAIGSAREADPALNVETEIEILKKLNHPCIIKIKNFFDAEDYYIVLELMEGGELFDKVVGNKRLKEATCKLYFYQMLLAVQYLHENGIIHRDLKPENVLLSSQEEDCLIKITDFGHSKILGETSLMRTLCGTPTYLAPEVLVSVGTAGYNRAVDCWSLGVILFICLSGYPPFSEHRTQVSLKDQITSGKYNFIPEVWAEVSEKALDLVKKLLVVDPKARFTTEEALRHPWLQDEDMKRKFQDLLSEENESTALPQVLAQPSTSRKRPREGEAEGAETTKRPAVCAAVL
Chain of Kappa-type opioid receptor (P41145 whole entry): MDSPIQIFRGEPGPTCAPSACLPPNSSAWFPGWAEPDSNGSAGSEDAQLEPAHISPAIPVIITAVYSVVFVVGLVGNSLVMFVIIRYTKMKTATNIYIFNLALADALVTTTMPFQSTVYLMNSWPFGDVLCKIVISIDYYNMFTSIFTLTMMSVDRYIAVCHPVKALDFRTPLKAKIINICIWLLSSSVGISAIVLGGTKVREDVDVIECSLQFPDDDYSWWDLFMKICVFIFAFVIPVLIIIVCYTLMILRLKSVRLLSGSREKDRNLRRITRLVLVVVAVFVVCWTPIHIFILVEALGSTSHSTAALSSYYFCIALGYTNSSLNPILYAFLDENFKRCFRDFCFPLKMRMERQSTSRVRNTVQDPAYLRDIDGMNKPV
Chain of Tyrosine-protein kinase Lck (P06239 whole entry): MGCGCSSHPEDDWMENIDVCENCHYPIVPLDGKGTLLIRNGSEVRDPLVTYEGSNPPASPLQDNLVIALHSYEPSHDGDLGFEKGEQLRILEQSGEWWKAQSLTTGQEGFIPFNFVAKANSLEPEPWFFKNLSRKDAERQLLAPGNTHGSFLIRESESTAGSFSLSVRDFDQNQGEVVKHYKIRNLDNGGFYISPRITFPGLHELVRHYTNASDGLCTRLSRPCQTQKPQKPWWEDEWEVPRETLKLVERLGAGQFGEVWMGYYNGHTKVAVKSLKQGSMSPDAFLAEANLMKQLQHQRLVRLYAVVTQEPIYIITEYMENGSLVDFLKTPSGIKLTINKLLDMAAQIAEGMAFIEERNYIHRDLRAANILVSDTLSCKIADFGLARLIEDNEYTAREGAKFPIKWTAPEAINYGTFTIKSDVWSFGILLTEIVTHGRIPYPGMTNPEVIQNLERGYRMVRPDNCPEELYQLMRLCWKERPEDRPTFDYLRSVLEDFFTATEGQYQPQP

With `COC(=O)CCS(=O)(=O)c1nc(-c2ccccc2)cc(C(F)(F)F)n1`, the concentration for half-maximal inhibition (IC50) in assay [1] is 4.78 µM (active).
Turning to `O=C(O)c1ccc(NC2=C(Cl)C(=O)c3ccccc3C2=O)cc1`, the half-maximal inhibitory concentration (IC50) in [2] was 10.8 µM (not active).
On to `O=C(O)c1ccc2c3c(ncnc13)-c1ccccc1C2=O`, for which the IC50 in [3] is 9.78 µM (active); in assay [5] it was > 100 µM (not active); in assay [6] it was > 50 µM (not active). In addition, the half-maximal effective concentration (EC50) was 31.9 µM (active) in [4] and > 150 µM (not active) in assay [7].
`CCOC(=O)c1c2c(n(Cc3ccccc3)c1C)C(=O)C(=O)c1ccccc1-2`: the AC50 in [8] was 6.77 µM (active).
Turning to `Cc1ccc2nccc(NC(=O)Nc3cccc(C(F)(F)F)n3)c2c1`, the Ki was > 5.01 µM (inactive) in assay [9]; > 2 µM (inactive) in assay [10]; > 2.51 µM (inactive) in [11]; > 1.58 µM (inactive) in assay [12]; > 1.26 µM (inactive) in assay [13].
`Cc1nn(C)c2sc3c(=O)[nH]cnc3c12`: the inhibitory constant (Ki) in [14] was 79.4 µM (active).
For the molecule `Cc1c(/N=C2\C=CC(=O)c3ccccc32)c(=O)n(-c2ccccc2)n1C`, the IC50 in [15] is more than 32 µM; in assay [16] it was 46.4 µM (active).
For `COc1cc2c(cc1F)C(c1ccccc1Cl)=Nc1c(n[nH]c1C)N2` [RG-1530], the Ki in [17] is > 2.51 µM (inactive); in assay [18], 0.0126 µM (active).
